From PMC4094919, “Screening and hit evaluation of a chemical library against blood-stage Plasmodium falciparum” (Malaria Journal, 2014)
Entries after “also recorded” stand apart in the source; their conditions may differ. Where two headings read alike, the source gives them in different places.

How the values were obtained:
[1] = test system: P. falciparum NF54 strain; assay: P. falciparum NF54 growth assay, 3H-hypoxanthine incorporation (hit validation); format: cell-based, Plasmodium falciparum; details: for EC50: Plasmodium falciparum; for Comment (activity in words on retest): hit validation, NF54 confirmatory assay
Protocol: Synthesized compounds were tested in an alternative assay, in which ^3H-hypoxanthine incorporation was measured in the chloroquine-sensitive strain NF54 (Values were measured in duplicate, 12 points/EC50).
Cultivation of Plasmodium falciparum: Plasmodium falciparum strain NF54 was obtained from the Research and Reference Reagent Resource Center (MR4) (Manassas, VA, USA). The two strains were maintained in vitro by a modification of the method of Trager and Jensen. Cultures were maintained in A positive (A^+) human erythrocytes suspended at 5% hematocrit in complete medium. […] Parasite growth and morphology were observed daily using thin smears at 100X (oil immersion) magnification following staining with Giemsa stain.
Plasmodium falciparum growth assay: The protocol assesses the compound efficacy against the growth of P. falciparum in vitro.
All cultures used in the study are albumax II adopted. […]
Following the incubation period, the plates were harvested with a FilterMate cell harvester (Perkin Elmer) onto unifilter-96 GF/B plates, washed with distilled water to remove excess radiochemical and plates were kept for drying 37°C overnight or 60°C for 1 hr. Fifty µL of Microscint scintillation cocktail (Microscint-High Efficiency LSC-Cocktail; Perkin Elmer) added in the unifilter-96 GF/B plates and kept for 15-20 min. The plates were counted in a Top Count NXT microplate scintillation and luminescence counter (Perkin Elmer). The mean values for [^3H]-hypoxanthine incorporation in parasitized control and non-parasitized control erythrocytes were calculated.
Assay data were analysed using Graph pad prism ver.5 software. A variable sigmoid dose response curve is plotted keeping log concentrations at X-axis and % inhibition at Y-axis.

P. falciparum 3D7 strain = assay: P. falciparum 3D7 growth inhibition, DAPI imaging (HTS screen); format: cell-based; details: Plasmodium falciparum
Protocol: The P. falciparum 3D7 strain was used for the primary screen.
For the screening of the chemical library, a validated high throughput screening (HTS) method was used as reported by Duffy and Avery. In brief, intra-erythrocyte P. falciparum 3D7 parasites incubated with the compounds for 72 hours were stained with 4′-6-diamidino-2-phenylindole (DAPI) and imaged using a high throughput confocal imaging system. To ascertain inhibition of parasite growth, images of fluorescent parasites were translated, using a mathematical algorithm, into a numerical output of classified spots (parasites) as determined by fluorescence size and intensity.
EC50 and CC50 values were calculated for compounds which presented an Emax plateau using GraphPad Prism.

[2] = P. falciparum NF54 strain, 3H-hypoxanthine incorporation, newly synthesized sample, read-out: EC50 (NF54)
[3] = negative logarithm of the molar EC50, NF54, read-out: pEC50 (NF54) (converted)
[4] = NF54, heading bounds of Figure 8: not reconfirming / reconfirming / newly synthesized compounds, read-out: EC50 (bound in Figure 8)
[5] = P. falciparum 3D7 strain, DAPI imaging, HTS screen, library sample, read-out: EC50 (3D7)
[6] = negative logarithm of the molar EC50, 3D7, read-out: pEC50 (3D7) (converted)

Compound | EC50 [1, 2] [nM] | EC50 [1, 3] [nM] | Comment (activity in words on retest) [1] | EC50 [1, 4] [nM] | EC50 (P. falciparum 3D7 strain; [5]) [nM] | EC50 (P. falciparum 3D7 strain; [6]) [nM] | Difference in activity between the two enantiomers ([1]; 15a versus 15b, NF54 EC50) | EC50 (P. falciparum 3D7 strain; 3D7, read-out: EC50 (3D7)) [nM] | EC50 (P. falciparum 3D7 strain; 3D7, read-out: Potency at HTS (3D7)) [nM] | EC50 (P. falciparum 3D7 strain; 3D7, read-out: pEC50 (3D7) (converted)) [nM]
CC(=O)N1c2ccccc2[C@@H](c2ccccc2)[C@@H]1C(=O)O (racemic) [Compound 4a, Rac (2R,3R)-1-acetyl-3-phenylindoline-2-carboxylic acid] | > 10000 | > 10000 | did not confirm activity; also recorded: Inactive |  |  |  |  |  |  | 
Cc1c(Cc2c(C)n(Cc3ccccc3C#N)c3ccccc23)c2ccccc2n1Cc1ccccc1C#N [Compound 2, 2,2'-((3,3'-methylenebis(2-methyl-1H-indole-3,1-diyl))bis(methylene))dibenzonitrile] | 763 | 794 | EC50 in the same range as initially described during the HTS |  |  |  |  |  |  | 
CC(C)(C)CC(=O)N(Cc1ccc(NC(=O)c2ccc(C#N)cc2)cc1)CC(C)(C)CN [Compound 3, N-(4-((N-(3-amino-2,2-dimethylpropyl)-3,3-dimethylbutanamido)methyl)phenyl)-4-cyanobenzamide] | 3000 | 3160 | Weakly active | > 1000 | 222 | 200 |  |  |  | 
O=C(O)C1Cc2c([nH]c3ccccc23)C(c2ccc(Cl)cc2Cl)N1 (stereo not drawn) [Compound 14] |  |  |  |  | 350 | 316 |  |  |  | 
O=C(O)[C@@H]1Cc2c([nH]c3ccccc23)[C@H](c2ccc(Cl)cc2Cl)N1 [Compound 14a, (1S,3S)-1-(2,4-dichlorophenyl)-2,3,4,9-tetrahydro-1H-pyrido[3,4-b]indole-3-carboxylic acid] | > 10000 | > 10000 | Inactive | < 1000 |  |  |  |  |  | 
O=C(O)[C@@H]1Cc2c([nH]c3ccccc23)[C@@H](c2ccc(Cl)cc2Cl)N1 [Compound 14b, (1R,3S)-1-(2,4-dichlorophenyl)-2,3,4,9-tetrahydro-1H-pyrido[3,4-b]indole-3-carboxylic acid] | 167 | 158 | Hit | < 1000 |  |  |  |  |  | 
O=C(O)[C@H]1Cc2c([nH]c3ccccc23)[C@@H](c2ccc(Cl)cc2Cl)N1 [Compound 14c] | 4200 | 3980 | weak activity; also recorded: Weakly active | < 1000 |  |  |  |  |  | 
O=C(O)[C@H]1Cc2c([nH]c3ccccc23)[C@H](c2ccc(Cl)cc2Cl)N1 [Compound 14d] | > 10000 | > 10000 | Inactive | < 1000 |  |  |  |  |  | 
Cc1ccc(S(=O)(=O)N2CC(C)N(Cc3ccc(C(=O)NC4CC4)cc3)CC2C)cc1 (stereo not drawn) [Compound 15, N-cyclopropyl-4-((2,5-dimethyl-4-tosylpiperazin-1-yl)methyl)benzamide] |  |  |  |  | 678 |  |  |  |  | 
Cc1ccc(S(=O)(=O)N2C[C@H](C)N(Cc3ccc(C(=O)NC4CC4)cc3)C[C@@H]2C)cc1 [Compound 15a] | 44 | 39.8 | Hit | < 1000 |  |  | more than 15 fold |  |  | 
Cc1ccc(S(=O)(=O)N2C[C@@H](C)N(Cc3ccc(C(=O)NC4CC4)cc3)C[C@H]2C)cc1 [Compound 15b] | 679 | 631 | Hit | < 1000 |  |  |  |  |  | 
Cc1ccc(S(=O)(=O)N2CCN(Cc3ccc(C(=O)NC4CC4)cc3)CC2)cc1 [Compound 15c, N-cyclopropyl-4-((4-tosylpiperazin-1-yl)methyl)benzamide] | 535 | 501 | Hit | < 1000 |  |  |  |  |  | 
CC(C)=CCN1CCC2(CC1)CN(C(=O)Nc1cccc(C#N)c1)c1ccc(C)cc12 [Compound 16] |  |  |  |  |  |  |  | 990 | < 1000 | 1000
O=C(Nc1cccc(Cl)c1)N1CC2(CCN(Cc3ccccc3)CC2)c2ccccc21 [Compound 17, 1'-benzyl-N-(3-chlorophenyl)spiro[indoline-3,4'-piperidine]-1-carboxamide] | 309 | 316 | Hit | < 1000 |  |  |  |  |  | 
